Source: paper PMC11335189, “Revealing molecular determinants governing mambalgin-3 pharmacology at acid-sensing ion channel 1 variants” (Cellular and Molecular Life Sciences: CMLS, 2024)
Read-outs that look alike come from different tables or passages of the source. Positions of bridges follow the written chain, without caps; N, C: chain ends. No end group written: not given here.

What was measured:
hASIC1b = biological target: T1, hASIC1b (Homo sapiens, UniProt P78348); assay: TEVC in Xenopus laevis oocytes expressing hASIC1b; assay type: cell-based; conditions: for remaining activity at 1 µM: 1 µM peptide, conditioning pH 7.45, mean, n ≥ 5, read-out: I/Icontrol
T1 construct: expressed in transfected cells; host or cells: Xenopus laevis oocytes (cRNA injection)
T1 sequence (P78348 1-562 isoform P78348-3): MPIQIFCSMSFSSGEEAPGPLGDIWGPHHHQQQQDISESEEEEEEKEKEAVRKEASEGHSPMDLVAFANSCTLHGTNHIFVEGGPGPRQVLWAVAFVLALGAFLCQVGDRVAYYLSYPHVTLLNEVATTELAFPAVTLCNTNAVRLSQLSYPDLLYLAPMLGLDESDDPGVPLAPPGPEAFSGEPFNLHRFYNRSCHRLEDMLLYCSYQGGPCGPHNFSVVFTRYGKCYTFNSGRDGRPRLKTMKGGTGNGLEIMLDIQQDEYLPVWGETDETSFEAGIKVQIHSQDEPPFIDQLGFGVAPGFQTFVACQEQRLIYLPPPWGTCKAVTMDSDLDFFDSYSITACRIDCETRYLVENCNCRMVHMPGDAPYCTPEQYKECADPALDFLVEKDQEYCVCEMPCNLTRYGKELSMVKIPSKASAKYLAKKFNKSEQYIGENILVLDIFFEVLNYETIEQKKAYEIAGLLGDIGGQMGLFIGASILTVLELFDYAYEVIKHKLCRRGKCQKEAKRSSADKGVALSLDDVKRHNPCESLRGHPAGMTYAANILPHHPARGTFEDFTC
Procedure: (§1) Two-electrode voltage-clamp (TEVC) experiments using Xenopus laevis oocytes were conducted as previously described. Briefly, oocytes were surgically removed from anaesthetised female frogs, then treated with collagenase (~ 1 mg/ml, Sigma type I) for 2 h under agitation at room temperature. cRNAs were synthesised using a mMessage mMachine T7 or SP6 transcription kit (Thermo Fisher Scientific Australia Pty Ltd, Scoresby, VIC, Australia) and injected into healthy stage V–VI oocytes at 0.2–20 ng per cell. Different amounts of RNA were used for different wild-type and mutant constructs, as well as to titrate expression levels to record over multiple days and maintaining consistent expression levels. Injected oocytes were incubated at 17 °C for 1–7 days in 50% Leibovitz’s L-15 medium (Gibco, Thermo Fisher Scientific Australia Pty Ltd, Scoresby, VIC, Australia), supplemented with 25 µg/mL gentamicin, 25 µg/mL streptomycin, and 2.5% fetal horse serum. Membrane currents were recorded 2–7 days after cRNA-injection under voltage-clamp at -60 mV (Axon Axoclamp 900 A, Molecular Devices, CA, USA) using two standard glass microelectrodes of 0.5–1 MΩ resistance when filled with 3 M KCl solution. Data were sampled at 2 kHz and filtered at 0.1 kHz using Clampex 10 software (Molecular Devices, CA, USA). A microperfusion system was used to allow fast extracellular solution exchange (bath volume = ~ 30 µL). All experiments were performed at room temperature (18–23 °C) in ND96 (96 mM NaCl, 2 mM KCl, 1.8 mM CaCl2, 2 mM MgCl2, 5 mM HEPES, pH 7.45). In solutions below pH 6.8, HEPES was replaced by MES. All solutions containing peptides contained 0.05% fatty acid free bovine serum albumin to decrease adsorptive losses of peptide to plasticware. For all channels tested, control current magnitudes between 500 and 9000 nA when tested using a conditioning pH of 7.45 and stimulating pH of 6 (except for the chimeras that were stimulated with pH 5) were used for data collection. Before recording any experiments, oocytes were stimulated multiple times with low pH to minimise and stabilise tachyphylaxis/desensitisation, which were then accounted for during analysis. Complete recovery of currents from Ma-3 induced modulation within 3 min of washout at all channels tested allowed for correction for tachyphylaxis/desensitisation during analyses.
(§2) Specific to this work, the standard protocol was for oocytes to be conditioned at pH 7.45 and channels stimulated every 60 s using a 5 s pH 5 or 6 application, unless stated otherwise. For all concentration-response data, peptides were applied for ~ 50 s between each low pH stimulus application. Activation curves were determined by conditioning oocytes at pH 8 (Fig. 2e − g; and Fig. 5a and b) or 7.45 (Fig. 6; and Supplementary Fig. 2d and c) for 55 s and applying low pH stimuli from 7.25 to 5.0 for 5 s. Steady-state desensitisation (SSD) was determined by applying conditioning solutions of pH values from 8 to 6 for 115 s prior to stimulation by a pH drop to 5 for 5 s. Ma-3 was only applied in the conditioning solution for activation and steady-state desensitisation curves in the presence of peptide. Control pH-dependence curves were determined in the absence of any Ma-3. When assessing the effect of Ma-3 on the rASIC1a: ASIC1b chimeras (C92 and C166; and for the comparative wild-type data), the conditioning pH was 7.45 and stimulating pH 5 (Fig. 3b). Specific details of the conditioning and stimulating pH are noted in each figure legend.
(§3) Data were analysed using pCLAMP-Clampfit software (Version 11, Molecular Devices, CA, USA) and GraphPad Prism 9.5 and 10.2.2 (GraphPad Software, San Diego, CA, USA). To obtain the Hill coefficient (nH) and half-maximal response (EC50, IC50, or pH50) the Hill equation was fitted to normalised concentration-response curves by using a non-linear fit to the data of a four-parameter logistic equation (“sigmoidal dose-response” in GraphPad Prism 9.5). […]

rASIC1a = biological target: T2, rASIC1a (Rattus norvegicus, UniProt P55926); assay: TEVC in Xenopus laevis oocytes expressing rASIC1a; assay type: cell-based; conditions: for inhibition of currents at 300 nM: 300 nM peptide; for increase in IC50 (loss of potency) relative to wild-type Ma-3: peptides applied at pH 7.45, stimulated at pH 6
T2 construct: expressed in transfected cells; host or cells: Xenopus laevis oocytes (cRNA injection)
T2 sequence (P55926 1-526): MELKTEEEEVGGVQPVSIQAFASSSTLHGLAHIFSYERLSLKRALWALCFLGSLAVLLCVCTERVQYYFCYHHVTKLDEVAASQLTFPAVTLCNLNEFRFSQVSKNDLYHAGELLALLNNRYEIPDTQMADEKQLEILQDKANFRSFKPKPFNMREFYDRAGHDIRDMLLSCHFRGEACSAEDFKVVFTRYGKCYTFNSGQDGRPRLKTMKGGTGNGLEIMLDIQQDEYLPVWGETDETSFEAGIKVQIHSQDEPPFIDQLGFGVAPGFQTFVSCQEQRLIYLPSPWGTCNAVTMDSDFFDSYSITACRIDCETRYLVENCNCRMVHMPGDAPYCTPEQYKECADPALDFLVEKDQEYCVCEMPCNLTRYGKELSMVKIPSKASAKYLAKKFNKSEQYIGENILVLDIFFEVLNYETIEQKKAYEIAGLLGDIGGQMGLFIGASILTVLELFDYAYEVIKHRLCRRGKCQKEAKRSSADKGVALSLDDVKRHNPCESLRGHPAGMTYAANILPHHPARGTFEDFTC
Procedure: as §1, §2, §3

[1] = conditioning pH 7.45, stimulating pH 6

Row | Substance | remaining activity at 1 µM (hASIC1b; pH 5 evoked currents) [%] | remaining activity at 1 µM (hASIC1b; pH 6 evoked currents) [%] | inhibition of currents at 300 nM (rASIC1a; [1]) | increase in IC50 (loss of potency) relative to wild-type Ma-3 (rASIC1a) | pH50 of activation in presence of Ma-3 (hASIC1b; 300 nM Ma-3, conditioning pH 7.45, Hill fit, n = 5–6) | difference in potency between pH 5 and pH 6 stimulus conditions (hASIC1b; potentiation at pH 6 vs inhibition at pH 5, conditioning pH 7.45) | t1/2 of onset of inhibition (rASIC1a; 30 nM Ma-3 (~ 10 times the IC50) applied at pH 7.45 for different durations, single exponential fit, n = 6) [s] | time of Ma-3 application to maximal inhibition (rASIC1a; 30 nM Ma-3 at pH 7.45) [s] | shift of the activation curve towards more acidic values (rASIC1a; 100 nM Ma-3, conditioning pH 8) [pH units] | slope of activation curve in presence of Ma-3 (rASIC1a; 100 nM Ma-3, conditioning pH 8, mean ± SEM) | alkaline shift in the SSD curve (rASIC1a; 100 nM Ma-3, stimulating pH 5) [pH units] | slope of SSD curve in presence of Ma-3 (rASIC1a; 100 nM Ma-3, stimulating pH 5, mean ± SEM) | pH50 of activation in presence of Ma-3 (rASIC1a; 100 nM Ma-3 in conditioning solution, conditioning pH 8, Hill fit, mean ± SEM, n = 5–8) | pH50 of steady-state desensitisation (SSD) in presence of Ma-3 (rASIC1a; 100 nM Ma-3 in conditioning solution, stimulating pH 5, Hill fit, mean ± SEM, n = 5–8) | pH50 of activation in presence of Ma-3 (rASIC1a; 100 nM Ma-3 in the pH 8 conditioning solution, Hill fit (Supplementary Table 7), n = 5–6) | fold more potent inhibition of rASIC1a than rASIC1b (rASIC1a; IC50 ratio, conditioning pH 7.45, stimulating pH 6) | t1/2 of recovery of currents from inhibition (washout) (rASIC1a; after 30 nM Ma-3, pH 7.45 conditioning, single exponential fit, n = 6) [s] | inhibition at saturating Ma-3 concentrations (rASIC1a; [1])
1 | H-SLKCYQHGAVVTCHRDMKFCYHNIGMPFRNLKLILQGCSSSCSETENNKCCSTDRCNK (disulfide 4-20, 13-38, 42-50, 51-56 (inferred)) [K8A] | 75 | 165 | strongly inhibit | ~ 4 fold |  |  |  |  |  |  |  |  |  |  |  |  |  | 
2 | H-SLKCYQHGKVVTCHRDAKFCYHNIGMPFRNLKLILQGCSSSCSETENNKCCSTDRCNK (disulfide 4-20, 13-38, 42-50, 51-56 (inferred)) [M16A] | 80 | 188 | strongly inhibit | no change |  |  |  |  |  |  |  |  |  |  |  |  |  | 
3 | H-SLKCYQHGKVVTCHRDMKFCYHNIGMPFRNLKLILQGCSSSCSETENNKCCSTDRCNK (disulfide 4-20, 13-38, 42-50, 51-56 (inferred)) [Ma-3, mambalgin-3] | 69 | 161 | strongly inhibit |  | 6.20 | ~ 10 fold | 6.5 | ≤ 45 | 0.48 | 1.29 ± 0.67 | 0.08 | 7.09 ± 1.34 | 5.72 ± 0.23 | 7.42 ± 0.04 | 5.60 | ~ 10 fold | 21.6 | completely inhibited
